The results in this text go back to the supplement of paper PMC11208160.
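Further: IS621 recombinase and bridge RNA in Escherichia coli cells.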

The nature of the series: recombinant barcode read abundance after kanamycin selection (control-corrected) (log10(CPM+1)); higher = more efficient recombination; sequences stand for … in AGTGCAGAGAAAATCGGCCAGTTTTCTCTGCCTGCAGTCCGCATGCCGT…AGATTTATGCAGCGGACTGCCTTTCTCCCAAAGTGATAAACCGGACAGTATCATGGACCGGTTTTCCCGGTAATCCGTATTTGCAAGGTTGGTTTCACT; site = the 11-nt target. In a few lines:
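IS621 bridge RNA target-binding loops were paired with targets in a pooled library tested in E. coli. After co-electroporation with a donor plasmid, cells were plated in two replicates on chloramphenicol/ampicillin LB agar (control) and on chloramphenicol/ampicillin/kanamycin carrying 0.1 mM IPTG. Barcodes at recombinant junctions were counted as counts per million, averaged and control-corrected to give recombination efficiency. Values are log10(CPM+1).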
In the case of “CAATGGACTTGGGTTCTAACCTGTTGCCT (site CAATGGACTAG)”, the “recombinant barcode read abundance (log10)” value was 1.12. The result for “CAATGGACTTGGGTTCTAACCTGTTGCCT (site CACTGGACTAG)” reads 0.0334; that for “CAATGGACTTGGGTTCTAACCTGTTGCCT (site CAGTGGACTAG)”, 0.106. With “CAATGGACTTGGGTTCTAACCTGTTGCCT (site CATTGGACTAG)” the figure was 0.103; with “CAATGGTCTTGGGTTCTAACCTGTTGCTT (site CAATGGTCTAA)”, 1.86; with “CAATGGTCTTGGGTTCTAACCTGTTGCTT (site CAATGGTCTAC)”, 1.64. With “CAATGGTCTTGGGTTCTAACCTGTTGCTT (site CAATGGTCTAG)” the figure was 1.07; with “CAATGGTCTTGGGTTCTAACCTGTTGCTT (site CAATGGTCTAT)”, 1.14; with “CAATTTCCTTGGGTTCTAACCTGTTGCAT (site CAATTTCCTAT)”, 0.322. On to “CAATTTCCTTGGGTTCTAACCTGTTGCAT (site GCCAGCTCTCA)”, for which the “recombinant barcode read abundance (log10)” value was determined as 0.0829. As to “CACACGACTTGGGTTCTAACCTGTTGCTT (site CACACGACTAA)”, the “recombinant barcode read abundance (log10)” value is 0.496.

As for “CACACGACTTGGGTTCTAACCTGTTGCTT (site TGGTTACCTCC)”, the “recombinant barcode read abundance (log10)” value is 0.0367. With “CACACGCCTTGGGTTCTAACCTGTTGCCT (site CACACGCCTAG)” the figure was 0.278. For the sequence “CACACGCCTTGGGTTCTAACCTGTTGCCT (site CTCACGCCTAA)”, the “recombinant barcode read abundance (log10)” value is 0.0913. With “CACATATCTTGGGTTCTAACCTGTTGCAT (site CACATATCTAT)” the figure was 1.49. The result for “CACATATCTTGGGTTCTAACCTGTTGCAT (site CACATCTCTAG)” reads 0.123. With “CACCAATCTTGGGTTCTAACCTGTTGCCT (site CACCAATCTAG)” the figure was 0.525. Consider “CACCAATCTTGGGTTCTAACCTGTTGCCT (site CACGCATCTAG)”, for which the “recombinant barcode read abundance (log10)” value stood at 0.269. The result for “CACCAGCCTTGGGTTCTAACCTGTTGCAT (site AGGTCCGCTTA)” reads 0.167; that for “CACCAGCCTTGGGTTCTAACCTGTTGCAT (site CACCAGCCTAT)”, 1.98; that for “CACCCCTCTTGGGTTCTAACCTGTTGCCG (site ATGAGGACTAC)”, 0.0851. The result for “CACCCCTCTTGGGTTCTAACCTGTTGCCG (site CACCCCTCTCG)” reads 2.44; that for “CACCGTCCTTGGGTTCTAACCTGTTGCAT (site CACCGTCCTAC)”, 0.0846. The result for “CACCGTCCTTGGGTTCTAACCTGTTGCAT (site CACCGTCCTAT)” reads 1.61; that for “CACCTGTCTTGGGTTCTAACCTGTTGCCG (site CACCTGACTCG)”, 0.151; that for “CACCTGTCTTGGGTTCTAACCTGTTGCCG (site CACCTGTCTCG)”, 1.94.

“CACGCGTCTTGGGTTCTAACCTGTTGCTG (site CACGCGTCTCA)”: the “recombinant barcode read abundance (log10)” value turned out to be 0.746. As for “CACGCGTCTTGGGTTCTAACCTGTTGCTG (site CACGCTTCTTA)”, the “recombinant barcode read abundance (log10)” value was 0.0288. With “CACGCTCCTTGGGTTCTAACCTGTTGCGT (site ACTTGAGCTCT)” the figure was 0.119. The result for “CACGCTCCTTGGGTTCTAACCTGTTGCGT (site CACGCTCCTAC)” reads 0.656; that for “CACGGGTCTTGGGTTCTAACCTGTTGCTT (site CACGGGTCTAA)”, 2.32. The result for “CACGGGTCTTGGGTTCTAACCTGTTGCTT (site CTCCGGTCTAA)” reads 0.209.
